How the values were obtained:
[1] = molecular target: T1, Peroxisome proliferator-activated receptor gamma (Homo sapiens, UniProt P37231); experiment: Partial agonist activity at human PPARgamma expressed in CHO cells co-transfected with Gal4-responsive luciferase reporter plasmid after 24 hrs by transactivation assay; assay type: functional, cell-based
T1 sequence (P37231 whole entry): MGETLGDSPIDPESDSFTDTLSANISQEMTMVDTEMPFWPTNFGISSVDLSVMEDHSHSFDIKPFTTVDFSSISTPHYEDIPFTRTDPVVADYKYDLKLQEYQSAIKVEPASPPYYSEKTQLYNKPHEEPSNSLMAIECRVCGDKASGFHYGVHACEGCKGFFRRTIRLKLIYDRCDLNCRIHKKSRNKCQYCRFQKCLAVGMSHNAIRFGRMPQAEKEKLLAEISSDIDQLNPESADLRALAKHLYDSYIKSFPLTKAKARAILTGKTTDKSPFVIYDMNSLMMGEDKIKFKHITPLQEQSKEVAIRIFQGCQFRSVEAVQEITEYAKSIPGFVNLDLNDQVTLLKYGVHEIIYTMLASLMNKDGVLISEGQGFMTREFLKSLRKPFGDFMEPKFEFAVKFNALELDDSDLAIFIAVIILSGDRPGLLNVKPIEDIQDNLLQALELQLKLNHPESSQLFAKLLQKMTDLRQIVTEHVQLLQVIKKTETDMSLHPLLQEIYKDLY

[2] = molecular target: T2, Peroxisome proliferator-activated receptor alpha (Homo sapiens, UniProt Q07869); experiment: Partial agonist activity at human PPARalpha expressed in CHO cells co-transfected with Gal4-responsive luciferase reporter plasmid after 24 hrs by transactivation assay; assay type: functional, cell-based
T2 sequence (Q07869 whole entry): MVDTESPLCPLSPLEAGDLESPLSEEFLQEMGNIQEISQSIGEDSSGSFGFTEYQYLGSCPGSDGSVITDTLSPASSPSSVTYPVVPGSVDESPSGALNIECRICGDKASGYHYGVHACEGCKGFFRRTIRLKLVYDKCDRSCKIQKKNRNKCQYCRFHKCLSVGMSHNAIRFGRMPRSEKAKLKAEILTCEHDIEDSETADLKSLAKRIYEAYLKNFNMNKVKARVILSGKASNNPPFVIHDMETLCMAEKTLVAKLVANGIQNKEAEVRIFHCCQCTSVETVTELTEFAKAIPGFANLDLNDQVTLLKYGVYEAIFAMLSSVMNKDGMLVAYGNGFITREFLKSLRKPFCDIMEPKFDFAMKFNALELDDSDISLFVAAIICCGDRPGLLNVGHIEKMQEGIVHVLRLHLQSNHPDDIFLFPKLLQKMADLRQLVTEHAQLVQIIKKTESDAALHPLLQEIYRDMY

[3] = molecular target: T3, Peroxisome proliferator-activated receptor alpha (Homo sapiens) (UniProt Q07869); experiment: Partial agonist activity at human PPARalpha expressed in CHO cells co-transfected with Gal4-responsive luciferase reporter plasmid after 24 hrs by transactivation assay relative to fenofibric acid; assay type: functional, cell-based; set-up: concentration or dose not given beside the values
T3 sequence (whole entry): T2 sequence (Q07869 whole entry)

[4] = Selectivity ratio of EC50 for mouse PPARalpha to EC50 for human PPARgamma
[5] = molecular target: T4, Peroxisome proliferator-activated receptor alpha (Mus musculus) (UniProt P23204); experiment: Partial agonist activity at mouse PPARalpha expressed in CHO cells co-transfected with Gal4-responsive luciferase reporter plasmid after 24 hrs by transactivation assay relative to fenofibric acid; assay type: functional, cell-based
T4 sequence (whole entry): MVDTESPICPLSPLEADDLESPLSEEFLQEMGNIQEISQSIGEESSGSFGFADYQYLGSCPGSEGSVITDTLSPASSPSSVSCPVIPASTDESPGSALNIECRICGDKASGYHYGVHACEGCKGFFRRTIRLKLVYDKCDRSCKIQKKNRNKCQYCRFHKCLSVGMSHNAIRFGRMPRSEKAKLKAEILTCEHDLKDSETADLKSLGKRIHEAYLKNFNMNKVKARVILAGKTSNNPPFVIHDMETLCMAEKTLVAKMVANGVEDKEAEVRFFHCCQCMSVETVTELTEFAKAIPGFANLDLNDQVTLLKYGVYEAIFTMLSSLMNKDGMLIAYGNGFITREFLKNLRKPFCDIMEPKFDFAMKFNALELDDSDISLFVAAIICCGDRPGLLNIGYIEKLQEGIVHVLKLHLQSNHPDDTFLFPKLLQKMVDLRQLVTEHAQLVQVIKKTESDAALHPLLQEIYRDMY

[6] = species: Homo sapiens; experiment: Selectivity ratio of EC50 for human PPARalpha to EC50 for human PPARgamma
[7] = tested on: Mus musculus; experiment: Toxicity in db/db mouse assessed as body weight gain at 30 mg/kg/day, po administered daily for 14 days relative to control; assay type: organism-based; set-up: route oral; settings: in vivo, 336 h
[8] = tested on: Mus musculus; experiment: Antidiabetic effect in db/db mouse assessed as reduction in plasma triglyceride level at 30 mg/kg/day, po administered daily for 14 days; assay type: functional; settings: 336 h
[9] = tested on: Mus musculus; experiment: Antidiabetic effect in db/db mouse assessed as reduction in plasma glucose level at 30 mg/kg/day, po administered daily for 14 days; assay type: functional; settings: 336 h
[10] = tested on: Mus musculus; experiment: Antidiabetic effect in db/db mouse assessed as increase in HDL cholesterol level at 30 mg/kg/day, po administered daily for 14 days; assay type: functional; settings: 336 h
[11] = tested on: Mus musculus; experiment: Toxicity in db/db mouse assessed as effect on food intake at 30 mg/kg/day, po administered daily for 14 days relative to control; assay type: organism-based; set-up: route oral; settings: in vivo, 336 h
[12] = Clearance in rat at 1 mg/kg, iv; assay type: ADME, organism-based; set-up: dose 1 mg/kg, route intravenous; settings: in vivo
[13] = Cmax in rat at 10 mg/kg, po; assay type: ADME, organism-based; set-up: dose 10 mg/kg, route oral; settings: in vivo
[14] = Volume of distribution in rat at 1 mg/kg, iv; assay type: ADME, organism-based; set-up: dose 1 mg/kg, route intravenous; settings: in vivo
[15] = Oral bioavailability in rat at 10 mg/kg; assay type: ADME, organism-based; settings: in vivo
[16] = Half life in rat at 1 mg/kg, iv; assay type: ADME, organism-based; set-up: dose 1 mg/kg, route intravenous; settings: in vivo

Compound | EC50 [1] | EC50 [2] | Activity [3] | other results
Cc1ccc(C(=O)c2nccn2C/C=C/c2cccc(OC(C)(C)C(=O)O)c2)cc1 | 12 µM | 0.62 µM | 56% | –
Cc1ccc(C(=O)c2nc3c(n2C/C=C/c2cccc(OC(C)(C)C(=O)O)c2)CCCC3)cc1 | 3 µM | 3.6 µM | 60% | –
Cc1ccc(C(=O)c2nc(C)c(C)n2C/C=C/c2cccc(OC(C)(C)C(=O)O)c2)cc1 | 4.8 µM | 3.6 µM | 60% | –
CCc1ccc(CCOc2ccc(CC3SC(=O)NC3=O)cc2)nc1 (centres undefined) [PIOGLITAZONE] | – | – | – | Activity [7]: 17%; inhibition in vivo at 30 mg/kg/day [8]: 69%; inhibition in vivo at 30 mg/kg/day [9]: 46%; inhibition in vivo at 30 mg/kg/day [10]: 10%
CC(C)(Oc1ccc(C(=O)c2ccc(Cl)cc2)cc1)C(=O)O | – | – | 100% | –
Cc1ccc(C(=O)c2nc3ccccc3n2/C=C/c2cccc(OC(C)(C)C(=O)[O-])c2)cc1.[Na+] | – | – | – | Activity [7]: 11%; Activity [11]: Non-toxic; clearance [12]: 3.48 mL/min/kg; Cmax [13]: 4340 ng/mL; inhibition in vivo at 30 mg/kg/day [8]: 86%; Vd [14]: 0.747 L/kg; bioavailability [15]: 110%; inhibition in vivo at 30 mg/kg/day [9]: 60%; inhibition in vivo at 30 mg/kg/day [10]: 38%; half-life [16]: 1.45 h

Now from value to molecule, other results behind:

EC50 [1] | EC50 [2] | Activity [3] | Compound | other results
6 µM | – | – | Cc1ccc(C(=O)c2nc3ccccc3n2Cc2cccc(OC(C)(C)C(=O)O)c2)cc1 | –
> 10 µM | > 10 µM | – | Cc1ccc(C(=O)c2nccn2C/C=C/c2cccc(OCC(=O)O)c2)cc1 | –
1.7 µM | 3.6 µM | 42% | Cc1ccc(C(=O)c2nc3ccccc3n2C/C=C/c2cccc(OC(C)(C)C(=O)O)c2)cc1 | –
3.3 µM | – | – | Cc1ccc(C(=O)c2nc3ccccc3n2-c2cccc(OC(C)(C)C(=O)O)c2)cc1 | –
– | – | 44% | Cc1ccc(C(=O)c2nc3ccccc3n2/C=C/c2cccc(OC(C)(C)C(=O)O)c2)cc1 [listing 1 of 2 here] | Ratio EC50 [4]: 13; Activity [5]: 77%; Ratio EC50 [6]: 18
4.6 µM | > 10 µM | – | Cc1ccc(C(=O)c2nc3ccccc3n2C/C=C/c2cccc(OCC(=O)O)c2)cc1 | –
0.13 µM | 2.4 µM | – | Cc1ccc(C(=O)c2nc3ccccc3n2/C=C/c2cccc(OC(C)(C)C(=O)O)c2)cc1 [listing 2 of 2 here] | –
